The results in this text go back to ChEMBL document CHEMBL6115046, “Synthesis and In Vitro Profiling of Psilocin Derivatives: Improved Stability and Synthetic Properties” (J Med Chem, 2025).

A short description of series [1]: Metabolic stability in human liver microsomes assessed as degradation at 1 uM measured upto 45 mins in presence of NADPH measured per mg protein by LC-MS/MS analysis. The format is ADME, Microsome. Conditions: 0.75 h. (In general: Liver microsomes are vesicles of endoplasmic reticulum, rich in cytochrome P450 enzymes.)
Series [2] in a line: Stability of the compound in 0.1M NaOH assessed as parent compound remaining measured after 24 hrs by LC-MS analysis. Type of series: physicochemical. The note with it: read-out: Stability.
Series [3] in a line: Chemical stability of the compound in 1M HCl assessed as half life measured for 24 hrs by LC-MS analysis. The format is physicochemical.
The nature of series [4]: Stability of the compound in 0.30% H2O2 assessed as parent compound remaining measured after 24 hrs by LC-MS analysis. Conditions: read-out: Stability. The format is physicochemical.
Series [5] in a line: Photolytic stability of the compound assessed as half life under 12900 lx light irradiation measured for 14 days by LC-MS analysis. The format is physicochemical. Conditions: time 14 day.
Series [6] is described as follows: Photolytic stability of the compound assessed as parent compound remaining incubated under 12900 lx light irradiation measured for 14 days by LC-MS analysis. Type of series: physicochemical. The note with it: time 14 day.
The nature of series [7]: Thermal stability of the compound assessed as parent compound remaining at 60 degreeC measured for 6 days by LC-MS analysis. The format is physicochemical. Conditions: time 6 day.
Series [8] is described as follows: Stability of the compound in 0.1M NaOH assessed as half life measured after 24 hrs by LC-MS analysis. The format is physicochemical.
The nature of series [9]: Thermal stability of compound assessed as half life at 60 degreeC measured for 6 days by LC-MS analysis. The format is physicochemical. Conditions: 144 h; time 6 day.
The nature of series [10]: Stability of the compound in 0.30% H2O2 assessed as half life measured after 24 hrs by LC-MS analysis. The format is physicochemical.
Series [11] can be described thus: Stability of the compound in 1M HCl assessed as parent compound remaining measured for 24 hrs by LC-MS analysis. Type of series: physicochemical. Conditions: buffer.

On to `CN(C)CCc1c[nH]c2cccc(OC(=O)OCc3ccccc3)c12.O=C(O)/C=C/C(=O)O.O=CO`, for which, in series [1], the Drug degradation is greater than 200 µL/min.

With `CN(C)CCc1c[nH]c2cccc(O)c12.OB(O)O`, the remaining at 24 h in series [2] and in series [4] was 0% in each case. Further, the half-life in series [3] (1M HCl) is greater than 167 h; in series [5] it was less than 16.7 h. The remaining at 336 h in series [6] (read-out: Stability) stood at 0%. The remaining at 144 h in series [7] (read-out: Stability) was found to be 0%.

`CN(C)CCc1c[nH]c2cccc(OB(O)O)c12.O=C(O)/C=C/C(=O)O`: the Drug degradation in [1] was greater than 200 µL/min.

In the case of `CN(C)CCc1c[nH]c2cccc(OP(=O)(O)O)c12` [PSILOCYBIN], the Drug degradation in [1] was less than 10 µL/min.

As for `CCCC(=O)Oc1cccc2[nH]cc(CCN(C)C)c12.O=C(O)/C=C/C(=O)O`, in [1], the Drug degradation is greater than 200 µL/min.

On to `CN(C)CCc1c[nH]c2cccc(OCc3ccccc3)c12`, for which, in series [1], the Drug degradation stood at 44 µL/min.

With `CN(C)CCc1c[nH]c2cccc(OS(=O)(=O)O)c12`, in [1], the Drug degradation is greater than 200 µL/min.

As to `CC(C)COC(=O)Oc1cccc2[nH]cc(CCN(C)C)c12.O=CO`, the Drug degradation in [1] was greater than 200 µL/min.

Turning to `COC(=O)Oc1cccc2[nH]cc(CCN(C)C)c12.O=C(O)/C=C/C(=O)O`, the Drug degradation in [1] is greater than 200 µL/min.

As for `CN(C)CCc1c[nH]c2cccc(OC(=O)N3CCCCC3)c12.O=C(O)/C=C/C(=O)O`, the Drug degradation in [1] is less than 10 µL/min.

Regarding `CN(C)CCc1c[nH]c2cccc(O)c12.O=C1O[C@H]([C@@H](O)CO)C(O)=C1O`, the t1/2 is 16.67 h in [8]; greater than 166.67 h in series [3] (buffer, 24 h); 150 h in series [9]; greater than 166.67 h in series [10]. Besides, the Stability is 39% in series [6] (336 h), 97% in series [11] and 42% in series [7] (144 h).

For `CCCCC(=O)Oc1cccc2[nH]cc(CCN(C)C)c12.O=C(O)/C=C/C(=O)O`, in series [1], the Drug degradation is greater than 200 µL/min.

The half-life is how long it takes for the measured level to halve.
